Assay results published in patent US20260041620A1, “NOVEL AMINO ACID BASED SALTS, COMPOSITIONS AND METHODS FOR TREATING SKIN AND IMPROVING SKIN REJUVENATION AND LONGEVITY” (Sytheon Ltd, priority 2023, published 2026).
Read-outs that look alike come from different tables or passages of the source.

How the values were obtained:
HDAC7 = target: T1, HDAC7 (Homo sapiens, UniProt Q8WUI4)
T1 sequence (Q8WUI4 1-952): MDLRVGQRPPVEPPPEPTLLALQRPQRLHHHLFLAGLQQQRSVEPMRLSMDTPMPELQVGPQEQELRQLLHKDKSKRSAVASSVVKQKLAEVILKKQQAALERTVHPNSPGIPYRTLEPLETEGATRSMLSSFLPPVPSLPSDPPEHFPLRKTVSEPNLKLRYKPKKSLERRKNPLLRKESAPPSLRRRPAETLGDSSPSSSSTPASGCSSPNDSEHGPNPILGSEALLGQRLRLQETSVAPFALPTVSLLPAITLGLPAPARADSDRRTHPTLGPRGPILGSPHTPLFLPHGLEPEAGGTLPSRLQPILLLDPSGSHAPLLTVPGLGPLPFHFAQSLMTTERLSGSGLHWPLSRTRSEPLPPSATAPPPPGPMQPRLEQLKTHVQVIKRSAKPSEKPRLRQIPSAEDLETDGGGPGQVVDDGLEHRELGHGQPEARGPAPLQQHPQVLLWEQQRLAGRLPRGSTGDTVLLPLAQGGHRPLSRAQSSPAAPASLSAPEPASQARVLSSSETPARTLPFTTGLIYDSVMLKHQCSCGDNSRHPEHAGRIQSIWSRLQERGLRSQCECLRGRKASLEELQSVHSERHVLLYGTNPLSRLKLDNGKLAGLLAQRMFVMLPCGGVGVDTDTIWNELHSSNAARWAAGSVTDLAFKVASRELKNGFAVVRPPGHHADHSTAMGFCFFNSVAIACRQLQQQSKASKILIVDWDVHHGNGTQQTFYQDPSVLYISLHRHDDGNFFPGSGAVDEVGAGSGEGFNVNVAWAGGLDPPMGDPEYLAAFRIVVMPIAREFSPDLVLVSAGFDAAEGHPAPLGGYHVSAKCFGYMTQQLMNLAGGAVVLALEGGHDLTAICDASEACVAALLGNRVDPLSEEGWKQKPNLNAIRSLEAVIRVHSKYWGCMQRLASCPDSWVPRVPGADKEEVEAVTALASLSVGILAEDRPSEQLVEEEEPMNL
Method: (§1) Test materials were stored at room temperature and stock solutions were prepared at 20 mg/ml in DMSO. Further dilutions were made in sterile distilled water immediately before being added to the reaction mixture containing a substrate, and the reaction was triggered by the addition of purified HDAC enzymes, Double distilled water was the negative control and trichostatin (1.5 ug/ml) was used as a positive control for validation of each study. The test procedure was as directed in the assay kits. The products of the reactions were measured by fluorometry at ex/em 350/450 nm using multi-well plate fluorometer Cytofluor 4000 (Applied Biosystem, Foster City, CA) or using SpectraMax i3× Multi-Mode Detection Platform from Molecular Devices (Sunnyvale, CA).
(§2) Statistical significance was assessed with a two-tail Student test. Deviations of ≤20% as compared to water control with p values below 0.05 were considered statistically significant.

HDAC6 = target: T2, HDAC6 (Homo sapiens, UniProt Q9UBN7)
T2 sequence (Q9UBN7 1-1215): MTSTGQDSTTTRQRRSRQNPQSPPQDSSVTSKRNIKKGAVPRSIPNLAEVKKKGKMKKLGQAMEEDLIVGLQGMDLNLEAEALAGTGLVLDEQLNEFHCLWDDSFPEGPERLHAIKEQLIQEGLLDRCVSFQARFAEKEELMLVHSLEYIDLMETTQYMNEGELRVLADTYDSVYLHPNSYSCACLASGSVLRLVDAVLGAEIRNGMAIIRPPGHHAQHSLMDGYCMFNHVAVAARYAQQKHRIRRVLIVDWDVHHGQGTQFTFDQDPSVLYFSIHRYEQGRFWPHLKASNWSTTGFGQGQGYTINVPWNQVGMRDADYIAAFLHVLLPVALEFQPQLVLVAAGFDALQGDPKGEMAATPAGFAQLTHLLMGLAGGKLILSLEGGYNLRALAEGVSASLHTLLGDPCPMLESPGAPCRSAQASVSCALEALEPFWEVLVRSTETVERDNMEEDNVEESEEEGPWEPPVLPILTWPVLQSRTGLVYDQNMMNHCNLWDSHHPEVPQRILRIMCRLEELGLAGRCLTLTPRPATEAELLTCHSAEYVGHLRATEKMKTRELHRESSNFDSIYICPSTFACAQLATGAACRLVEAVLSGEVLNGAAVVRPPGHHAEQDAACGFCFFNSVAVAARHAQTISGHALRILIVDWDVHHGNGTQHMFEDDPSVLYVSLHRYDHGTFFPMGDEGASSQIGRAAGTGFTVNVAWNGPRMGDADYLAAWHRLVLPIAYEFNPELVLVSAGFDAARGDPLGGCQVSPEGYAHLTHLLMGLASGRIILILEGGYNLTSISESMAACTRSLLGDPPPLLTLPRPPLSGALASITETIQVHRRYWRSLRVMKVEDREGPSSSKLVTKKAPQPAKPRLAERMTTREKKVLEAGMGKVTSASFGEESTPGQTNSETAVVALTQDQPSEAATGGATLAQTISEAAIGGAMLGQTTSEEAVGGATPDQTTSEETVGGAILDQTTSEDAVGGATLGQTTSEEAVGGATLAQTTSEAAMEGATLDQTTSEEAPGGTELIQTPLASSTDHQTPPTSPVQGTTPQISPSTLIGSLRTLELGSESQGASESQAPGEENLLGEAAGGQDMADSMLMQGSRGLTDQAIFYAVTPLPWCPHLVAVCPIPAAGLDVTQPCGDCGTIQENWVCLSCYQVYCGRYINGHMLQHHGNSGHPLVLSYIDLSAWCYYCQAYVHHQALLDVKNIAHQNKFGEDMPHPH
Method: as §1, §2

HDAC 3 = HDAC 3 (Homo sapiens, UniProt O15379)
Method: as §1, §2

HDAC 11 = target: T3, HDAC 11 (Homo sapiens, UniProt Q96DB2); assay: HDAC 11 fluorogenic assay kit; format: biochemical
T3 construct: purchased BPS Biosciences 50687
T3 sequence (Q96DB2 1-347): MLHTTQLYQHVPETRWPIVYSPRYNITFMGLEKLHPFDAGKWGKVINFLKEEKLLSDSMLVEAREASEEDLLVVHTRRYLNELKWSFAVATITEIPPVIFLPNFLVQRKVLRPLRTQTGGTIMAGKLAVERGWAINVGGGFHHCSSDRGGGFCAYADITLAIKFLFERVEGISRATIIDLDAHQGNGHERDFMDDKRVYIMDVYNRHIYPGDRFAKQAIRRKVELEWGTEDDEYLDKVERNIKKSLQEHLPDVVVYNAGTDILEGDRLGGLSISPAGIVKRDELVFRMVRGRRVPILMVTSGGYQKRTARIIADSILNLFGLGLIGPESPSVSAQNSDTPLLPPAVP
Method: as §1, §2

Chain of HDAC 3 (O15379 whole entry): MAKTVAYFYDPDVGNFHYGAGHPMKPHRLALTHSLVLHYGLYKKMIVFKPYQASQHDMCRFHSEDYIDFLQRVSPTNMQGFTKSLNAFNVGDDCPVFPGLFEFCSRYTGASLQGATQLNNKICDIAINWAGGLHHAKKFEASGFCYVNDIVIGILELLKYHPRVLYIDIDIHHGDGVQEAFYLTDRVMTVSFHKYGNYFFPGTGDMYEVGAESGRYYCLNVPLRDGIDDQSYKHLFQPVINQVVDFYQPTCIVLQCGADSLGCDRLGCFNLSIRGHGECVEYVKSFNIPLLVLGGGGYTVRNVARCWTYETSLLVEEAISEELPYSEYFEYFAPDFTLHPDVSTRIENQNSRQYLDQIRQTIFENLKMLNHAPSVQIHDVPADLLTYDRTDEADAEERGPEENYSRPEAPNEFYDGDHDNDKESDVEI
Chain of HDAC 3 (Q9Y618 395-489 partner limits assumed): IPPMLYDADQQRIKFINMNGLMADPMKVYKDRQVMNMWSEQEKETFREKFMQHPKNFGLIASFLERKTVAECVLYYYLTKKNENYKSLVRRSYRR

CCCC(=O)NCCCCC(NC(=O)CCC)C(=O)[O-].CCCC(=O)NCCCCC(NC(=O)CCC)C(=O)[O-].[Ca+2] (stereo not shown) [Ca di-(di-n-butyryl lysinate), calcium di-(di-n-butyryl lysinate)]
HDAC 7 activity, % of water-treated controls (HDAC7; 25 ug/ml): 101%
HDAC 7 activity, % of water-treated controls (HDAC7; 50 ug/ml): 99%
HDAC 7 activity, % of water-treated controls (HDAC7; 100 ug/ml): 99%
HDAC 7 activity, % of water-treated controls (HDAC7; 200 ug/ml): 97%
HDAC 6 activity, % of water-treated controls (HDAC6; 5 ug/ml): 105%
HDAC 6 activity, % of water-treated controls (HDAC6; 25 ug/ml): 97%
HDAC 6 activity, % of water-treated controls (HDAC6; 50 ug/ml): 124%
HDAC 6 activity, % of water-treated controls (HDAC6; 100 ug/ml): 128%
HDAC 6 activity, % of water-treated controls (HDAC6; 200 ug/ml): 134%
HDAC 3 activity, % of water-treated controls (HDAC 3; 25 ug/ml): 116%
HDAC 3 activity, % of water-treated controls (HDAC 3; 50 ug/ml): 120%
HDAC 3 activity, % of water-treated controls (HDAC 3; 100 ug/ml): 121%
HDAC 3 activity, % of water-treated controls (HDAC 3; 200 ug/ml): 119%
HDAC 11 activity, % of water-treated controls (HDAC 11; 25 ug/ml): 106%
HDAC 11 activity, % of water-treated controls (HDAC 11; 50 ug/ml): 100%
HDAC 11 activity, % of water-treated controls (HDAC 11; 100 ug/ml): 101%
HDAC 11 activity, % of water-treated controls (HDAC 11; 200 ug/ml): 97%

CCCC(=O)[O-].[Na+] [Sodium butyrate, reference compound]
HDAC 7 activity, % of water-treated controls (HDAC7; 50 ug/ml): 96%
HDAC 7 activity, % of water-treated controls (HDAC7; 100 ug/ml): 94%
HDAC 7 activity, % of water-treated controls (HDAC7; 200 ug/ml): 87%
HDAC 7 activity, % of water-treated controls (HDAC7; 400 ug/ml): 91%
HDAC 6 activity, % of water-treated controls (HDAC6; 50 ug/ml): 107%
HDAC 6 activity, % of water-treated controls (HDAC6; 100 ug/ml): 110%
HDAC 6 activity, % of water-treated controls (HDAC6; 200 ug/ml): 92%
HDAC 6 activity, % of water-treated controls (HDAC6; 400 ug/ml): 102%
HDAC 3 activity, % of water-treated controls (HDAC 3; 50 ug/ml): 98%
HDAC 3 activity, % of water-treated controls (HDAC 3; 100 ug/ml): 82%
HDAC 3 activity, % of water-treated controls (HDAC 3; 200 ug/ml): 60%
HDAC 3 activity, % of water-treated controls (HDAC 3; 400 ug/ml): 49%
HDAC 11 activity, % of water-treated controls (HDAC 11; 50 ug/ml): 89%
HDAC 11 activity, % of water-treated controls (HDAC 11; 100 ug/ml): 87%
HDAC 11 activity, % of water-treated controls (HDAC 11; 200 ug/ml): 84%
HDAC 11 activity, % of water-treated controls (HDAC 11; 400 ug/ml): 91%

CCCC(=O)NCCCC[C@H](NC(=O)CCC)C(=O)[O-].CCCC(=O)NCCCC[C@H](NC(=O)CCC)C(=O)[O-].[Zn+2] [Zn di-(di-n-butyryl lysinate), Zinc di-(di-n-butyryl lysinate)]
HDAC 7 activity, % of water-treated controls (HDAC7; 5 ug/ml): 56%
HDAC 7 activity, % of water-treated controls (HDAC7; 25 ug/ml): 28%
HDAC 7 activity, % of water-treated controls (HDAC7; 50 ug/ml): 15%
HDAC 7 activity, % of water-treated controls (HDAC7; 100 ug/ml): 9%
HDAC 7 activity, % of water-treated controls (HDAC7; 200 ug/ml): 9%
HDAC 6 activity, % of water-treated controls (HDAC6; 5 ug/ml): 25%
HDAC 6 activity, % of water-treated controls (HDAC6; 25 ug/ml): 18%
HDAC 6 activity, % of water-treated controls (HDAC6; 50 ug/ml): 19%
HDAC 6 activity, % of water-treated controls (HDAC6; 100 ug/ml): 21%
HDAC 6 activity, % of water-treated controls (HDAC6; 200 ug/ml): 19%
HDAC 3 activity, % of water-treated controls (HDAC 3; 25 ug/ml): 14%
HDAC 3 activity, % of water-treated controls (HDAC 3; 50 ug/ml): 5%
HDAC 3 activity, % of water-treated controls (HDAC 3; 200 ug/ml): 4%
HDAC 11 activity, % of water-treated controls (HDAC 11; 5 ug/ml): 102%
HDAC 11 activity, % of water-treated controls (HDAC 11; 25 ug/ml): 63%
HDAC 11 activity, % of water-treated controls (HDAC 11; 50 ug/ml): 17%
HDAC 11 activity, % of water-treated controls (HDAC 11; 100 ug/ml): 22%
HDAC 11 activity, % of water-treated controls (HDAC 11; 200 ug/ml): 43%

CCCC(=O)N[C@@H](CC(C)C)C(=O)[O-].CCCC(=O)N[C@@H](CC(C)C)C(=O)[O-].[Zn+2] [Zn di-(n-butyryl leucinate), Zinc di-(n-butyryl leucinate)]
HDAC 7 activity, % of water-treated controls (HDAC7; 5 ug/ml): 41%
HDAC 7 activity, % of water-treated controls (HDAC7; 25 ug/ml): 18%
HDAC 7 activity, % of water-treated controls (HDAC7; 50 ug/ml): 11%
HDAC 7 activity, % of water-treated controls (HDAC7; 100 ug/ml): 9%
HDAC 7 activity, % of water-treated controls (HDAC7; 200 ug/ml): 9%
HDAC 6 activity, % of water-treated controls (HDAC6; 5 ug/ml): 20%
HDAC 6 activity, % of water-treated controls (HDAC6; 25 ug/ml): 20%
HDAC 6 activity, % of water-treated controls (HDAC6; 50 ug/ml): 21%
HDAC 6 activity, % of water-treated controls (HDAC6; 100 ug/ml): 20%
HDAC 6 activity, % of water-treated controls (HDAC6; 200 ug/ml): 17%
HDAC 11 activity, % of water-treated controls (HDAC 11; 5 ug/ml): 102%
HDAC 11 activity, % of water-treated controls (HDAC 11; 25 ug/ml): 100%
HDAC 11 activity, % of water-treated controls (HDAC 11; 50 ug/ml): 93%
HDAC 11 activity, % of water-treated controls (HDAC 11; 100 ug/ml): 71%
HDAC 11 activity, % of water-treated controls (HDAC 11; 200 ug/ml): 39%

Zinc Di-lysinate [Zn dilysinate]
HDAC 7 activity, % of water-treated controls (HDAC7; 25 ug/ml): 30%
HDAC 7 activity, % of water-treated controls (HDAC7; 50 ug/ml): 18%
HDAC 7 activity, % of water-treated controls (HDAC7; 100 ug/ml): 10%
HDAC 7 activity, % of water-treated controls (HDAC7; 200 ug/ml): 10%
HDAC 6 activity, % of water-treated controls (HDAC6; 5 ug/ml): 22%
HDAC 6 activity, % of water-treated controls (HDAC6; 25 ug/ml): 16%
HDAC 6 activity, % of water-treated controls (HDAC6; 50 ug/ml): 17%
HDAC 6 activity, % of water-treated controls (HDAC6; 100 ug/ml): 14%
HDAC 6 activity, % of water-treated controls (HDAC6; 200 ug/ml): 8%
HDAC 3 activity, % of water-treated controls (HDAC 3; 10 ug/ml): 18%
HDAC 3 activity, % of water-treated controls (HDAC 3; 50 ug/ml): 8%
HDAC 3 activity, % of water-treated controls (HDAC 3; 200 ug/ml): 5%
HDAC 11 activity, % of water-treated controls (HDAC 11; 25 ug/ml): 91%
HDAC 11 activity, % of water-treated controls (HDAC 11; 50 ug/ml): 84%
HDAC 11 activity, % of water-treated controls (HDAC 11; 100 ug/ml): 47%
HDAC 11 activity, % of water-treated controls (HDAC 11; 200 ug/ml): 38%
